Test results as given in patent US20160101067A1, “SUPRAMOLECULAR COMPLEXES OF POLYANIONIC POLYMERS AND SPERMIDINE IN TISSUE MAINTENANCE AND REPAIR” (TIXUPHARMA, priority 2013, published 2016).

Tested on: human fibroblasts (ATCC-CRL-2703)
Assay: Fibroblast proliferation, MTT coloration
Assay type: cell-based
Experimental: These supramolecular complexes were tested to evaluate the stimulatory activity on human fibroblasts (ATCC-CRL-2703). […] Cells were exposed to each complex for 24 and 48 hours (medium was replaced every 24 h) at 37° C. and 5% CO2. At the end of incubation period, MTT coloration was performed in order to evaluate cell viability and the increasing proliferating rate compared to untreated control cells. For each determination 6 tests were carried out. After exposure, cells were washed with […] of PBS, then 200 μl of MTT-medium are added to each culture well and incubated for 4 hours at 37° C. and 5% CO2. MTT medium is then removed and 200 μl of MTT dissolving solution (10% Triton X-100 and 0.1 N HCl in dry isopropanol) were added. After shaking on a rotating plate for 20-30′ to dissolve crystals and homogenize the solution, absorbance was read at 570 nm; background reading at 690 nm.

NCCCCNCCCN [Spermidine (Spd) 3HCl, N-(3-aminopropyl)-1,4-butanediamine]
% Proliferative increase at 24 h (Spd 3HCl 10 nM): 31.86% | % Proliferative increase at 48 h (Spd 3HCl 10 nM): 35.96% | % Proliferative increase at 24 h (Spd 3HCl 100 nM): 26.27% | % Proliferative increase at 48 h (Spd 3HCl 100 nM): 29.39% | % Proliferative increase at 24 h (Spd 3HCl 1 μM): 7.55% | % Proliferative increase at 48 h (Spd 3HCl 1 μM): 13.01% | % Proliferative increase at 24 h (Spd 3HCl 10 μM): 2.3% | % Proliferative increase at 48 h (Spd 3HCl 10 μM): 8.48% | % Proliferative increase at 24 h (Spd 3HCl 100 μM): 1.31% | % Proliferative increase at 48 h (Spd 3HCl 100 μM): 4.09% | % Proliferative increase at 24 h (Spd 3HCl 1 mM): −0.16% | % Proliferative increase at 48 h (Spd 3HCl 1 mM): −3.22% | % Proliferative increase at 24 h (Spd 3HCl 10 mM): −9.85% | % Proliferative increase at 48 h (Spd 3HCl 10 mM): −9.5% | effect on fibroblast proliferation at mmolar concentration (mmolar concentration): suppressive effect | pattern of the proliferative effect over concentration (serial dilution): bimodal pattern | effect on fibroblast proliferation at μmolar or nmolar levels (μmolar or nmolar levels): positive effect
